Measured values taken from PubChem BioAssay AID2060892 (Molecular Pharmacology Branch, DTP, NCI, 2025).
“And” between values parts separate entries of the source, which are not always exact repeats. Equal entries are not always repeated.

Test system: HOP-62 complex spheroids with HUVEC/MSC, viability
Assay: Anticancer human tumor HOP-62 cell line growth inhibition [RAS];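 note: spheroids exposed to agents for seven days before readout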;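 for viability, T/C: 100% = DMSO vehicle control viability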
Settings: for viability, T/C: stronger effect = lower value; for IC50: curve of first compound
Method in brief: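 Agents were tested in combination matrices in half-log decrements from a top concentration at or near clinical Cmax (10 microM if undetermined). Targets were multi-cell spheroids of tumour lines plus HUVEC and MSC stromal cells.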

[1] = second compound 0.0316 µM, first compound 0.0316 µM
[2] = second compound 0.0316 µM, first compound 0.1 µM
[3] = second compound 0.1 µM, first compound 0.0316 µM
[4] = second compound 0.1 µM, first compound 0.1 µM
[5] = second compound 0.316 µM, first compound 0.0316 µM
[6] = second compound 0.316 µM, first compound 0.1 µM
[7] = second compound 1 µM, first compound 0.0316 µM
[8] = second compound 1 µM, first compound 0.1 µM
[9] = second compound 0.00316 µM, first compound 0.0316 µM
[10] = second compound 0.00316 µM, first compound 0.1 µM
[11] = second compound 0.00316 µM, first compound 0.316 µM
[12] = second compound 0.00316 µM, first compound 1 µM
[13] = second compound 0.00316 µM, first compound 3.16 µM
[14] = second compound 0.00316 µM, first compound 10 µM
[15] = second compound 0.01 µM, first compound 0.0316 µM
[16] = second compound 0.01 µM, first compound 0.1 µM
[17] = second compound 0.01 µM, first compound 0.316 µM
[18] = second compound 0.01 µM, first compound 1 µM
[19] = second compound 0.01 µM, first compound 3.16 µM
[20] = second compound 0.01 µM, first compound 10 µM
[21] = second compound 0.0316 µM, first compound 0.316 µM
[22] = second compound 0.0316 µM, first compound 1 µM
[23] = second compound 0.0316 µM, first compound 3.16 µM
[24] = second compound 0.0316 µM, first compound 10 µM
[25] = second compound 0.1 µM, first compound 0.316 µM
[26] = second compound 0.1 µM, first compound 1 µM
[27] = second compound 0.1 µM, first compound 3.16 µM
[28] = second compound 0.1 µM, first compound 10 µM
[29] = second compound 0.316 µM, first compound 0.316 µM
[30] = second compound 0.316 µM, first compound 1 µM
[31] = second compound 0.316 µM, first compound 3.16 µM
[32] = second compound 0.316 µM, first compound 10 µM
[33] = second compound 1 µM, first compound 0.316 µM
[34] = second compound 1 µM, first compound 1 µM
[35] = second compound 1 µM, first compound 3.16 µM
[36] = second compound 1 µM, first compound 10 µM

CC(C)n1nc(-c2ccc3oc(N)nc3c2)c2c(N)ncnc21
viability, T/C (compound 0.000316 µM): 105% [middle of 4 runs] | viability, T/C (compound 0.001 µM): 97.4% [middle of 4 runs] | viability, T/C (compound 0.00316 µM): 93.7% [middle of 4 runs] | viability, T/C (compound 0.01 µM): 98.7% and 65.8% and 66.1%

CC(C)n1nc(-c2ccc3oc(N)nc3c2)c2c(N)ncnc21 + C#Cc1c(F)ccc2cc(O)cc(-c3ncc4c(N5CC6CCC(C5)N6)nc(OCC56CCCN5CC(F)C6)nc4c3F)c12
IC50 (second compound 0.0316 µM): 27.8 nM | IC50 (second compound 0.1 µM): 28.1 nM | IC50 (second compound 0.316 µM): 19.5 nM | IC50 (second compound 1 µM): 12.4 nM | IC50 (second compound 3.16 µM): 3.75 nM | IC50 (second compound 10 µM): < 0.316 nM | viability, T/C (second compound 0.0316 µM, first compound 0.000316 µM): 99.2% | viability, T/C (second compound 0.0316 µM, first compound 0.001 µM): 99% | viability, T/C (second compound 0.0316 µM, first compound 0.00316 µM): 86.8% | viability, T/C (second compound 0.0316 µM, first compound 0.01 µM): 73.7% | viability, T/C [1]: 46.3% | viability, T/C [2]: 28.3% | viability, T/C (second compound 0.1 µM, first compound 0.000316 µM): 110% | viability, T/C (second compound 0.1 µM, first compound 0.001 µM): 94.9% | viability, T/C (second compound 0.1 µM, first compound 0.00316 µM): 83.9% | viability, T/C (second compound 0.1 µM, first compound 0.01 µM): 69.6% | viability, T/C [3]: 46.9% | viability, T/C [4]: 26.7% | viability, T/C (second compound 0.316 µM, first compound 0.000316 µM): 106% | viability, T/C (second compound 0.316 µM, first compound 0.001 µM): 99.3% | viability, T/C (second compound 0.316 µM, first compound 0.00316 µM): 79.3% | viability, T/C (second compound 0.316 µM, first compound 0.01 µM): 63.1% | viability, T/C [5]: 41.1% | viability, T/C [6]: 26.5% | viability, T/C (second compound 1 µM, first compound 0.000316 µM): 106% | viability, T/C (second compound 1 µM, first compound 0.001 µM): 89.7% | viability, T/C (second compound 1 µM, first compound 0.00316 µM): 70% | viability, T/C (second compound 1 µM, first compound 0.01 µM): 54.6% | viability, T/C [7]: 36.1% | viability, T/C [8]: 26.6% | viability, T/C (second compound 3.16 µM, first compound 0.000316 µM): 76.9% | viability, T/C (second compound 3.16 µM, first compound 0.001 µM): 67.2% | viability, T/C (second compound 3.16 µM, first compound 0.00316 µM): 47.6% | viability, T/C (second compound 3.16 µM, first compound 0.01 µM): 37.5% | viability, T/C (second compound 3.16 µM, first compound 0.0316 µM): 35.6% | viability, T/C (second compound 3.16 µM, first compound 0.1 µM): 14.4% | viability, T/C (second compound 10 µM, first compound 0.000316 µM): 45.7% | viability, T/C (second compound 10 µM, first compound 0.001 µM): 32.8% | viability, T/C (second compound 10 µM, first compound 0.00316 µM): 28.2% | viability, T/C (second compound 10 µM, first compound 0.01 µM): 21.6% | viability, T/C (second compound 10 µM, first compound 0.0316 µM): 13% | viability, T/C (second compound 10 µM, first compound 0.1 µM): 11.6%

CCC(CC)c1cc(NC2CCC(N)C2)n2nccc2n1 (configuration not stated) + C=CC(=O)N1CCN(c2nc(OCC3CCCN3C)nc3c(F)c(-c4nc(N)cc(C)c4C(F)(F)F)c(Cl)cc23)C(C)C1
IC50 (second compound 0.00316 µM): 1430 nM | IC50 (second compound 0.01 µM): 1320 nM | IC50 (second compound 0.0316 µM): 1450 nM | IC50 (second compound 0.1 µM): 1430 nM | IC50 (second compound 0.316 µM): 1360 nM | IC50 (second compound 1 µM): 1380 nM | viability, T/C [9]: 82.5% | viability, T/C [10]: 79.4% | viability, T/C [11]: 88.6% | viability, T/C [12]: 71.8% | viability, T/C [13]: 2.08% | viability, T/C [14]: 1.07% | viability, T/C [15]: 77.7% | viability, T/C [16]: 69.6% | viability, T/C [17]: 70.3% | viability, T/C [18]: 65.5% | viability, T/C [19]: 1.41% | viability, T/C [20]: 0.46% | viability, T/C [1]: 75.2% | viability, T/C [2]: 68.4% | viability, T/C [21]: 76.5% | viability, T/C [22]: 73.2% | viability, T/C [23]: 0.98% | viability, T/C [24]: 0.34% | viability, T/C [3]: 66.2% | viability, T/C [4]: 70.5% | viability, T/C [25]: 74.6% | viability, T/C [26]: 73.5% | viability, T/C [27]: 2.62% | viability, T/C [28]: 0.16% | viability, T/C [5]: 70.7% | viability, T/C [6]: 68.9% | viability, T/C [29]: 71.4% | viability, T/C [30]: 68.2% | viability, T/C [31]: 0.89% | viability, T/C [32]: 0.5% | viability, T/C [7]: 62.5% | viability, T/C [8]: 69.9% | viability, T/C [33]: 70.9% | viability, T/C [34]: 73.4% | viability, T/C [35]: 1.28% | viability, T/C [36]: 0.62%

CC(=O)OC12COC1CC(O)C1(C)C(=O)C(O)C3=C(C)C(OC(=O)C(O)C(NC(=O)OC(C)(C)C)c4ccccc4)CC(O)(C(OC(=O)c4ccccc4)C21)C3(C)C (configuration not stated) + C=CC(=O)N1CCN(c2nc(OCC3CCCN3C)nc3c(F)c(-c4nc(N)cc(C)c4C(F)(F)F)c(Cl)cc23)C(C)C1
IC50 (second compound 0.00316 µM): < 31.6 nM | IC50 (second compound 0.01 µM): < 31.6 nM | IC50 (second compound 0.0316 µM): < 31.6 nM | IC50 (second compound 0.1 µM): < 31.6 nM | IC50 (second compound 0.316 µM): < 31.6 nM | IC50 (second compound 1 µM): < 31.6 nM | viability, T/C [9]: 11.2% | viability, T/C [10]: 14.7% | viability, T/C [11]: 10.4% | viability, T/C [12]: 12.3% | viability, T/C [13]: 15.1% | viability, T/C [14]: 20.3% | viability, T/C [15]: 10.4% | viability, T/C [16]: 11.1% | viability, T/C [17]: 13.4% | viability, T/C [18]: 10.4% | viability, T/C [19]: 12.5% | viability, T/C [20]: 16.6% | viability, T/C [1]: 9.88% | viability, T/C [2]: 11.9% | viability, T/C [21]: 11% | viability, T/C [22]: 13% | viability, T/C [23]: 15.2% | viability, T/C [24]: 14.6% | viability, T/C [3]: 11.6% | viability, T/C [4]: 12.4% | viability, T/C [25]: 11.9% | viability, T/C [26]: 13.6% | viability, T/C [27]: 15.2% | viability, T/C [28]: 19% | viability, T/C [5]: 9.18% | viability, T/C [6]: 9.55% | viability, T/C [29]: 10.4% | viability, T/C [30]: 10.9% | viability, T/C [31]: 14.8% | viability, T/C [32]: 20.1% | viability, T/C [7]: 10.2% | viability, T/C [8]: 10.5% | viability, T/C [33]: 13% | viability, T/C [34]: 14.2% | viability, T/C [35]: 15.5% | viability, T/C [36]: 20.1%

C[C@@H](NC(=O)c1ncnc(N)c1Cl)c1ncc(C(=O)Nc2cc(C(F)(F)F)c(Cl)cn2)s1 + C=CC(=O)N1CCN(c2nc(OCC3CCCN3C)nc3c(F)c(-c4nc(N)cc(C)c4C(F)(F)F)c(Cl)cc23)C(C)C1
IC50 (second compound 0.00316 µM): > 10000 nM | IC50 (second compound 0.01 µM): 8690 nM | IC50 (second compound 0.0316 µM): 4320 nM | IC50 (second compound 0.1 µM): 7860 nM | IC50 (second compound 0.316 µM): > 10000 nM | IC50 (second compound 1 µM): > 10000 nM | viability, T/C [9]: 88.6% | viability, T/C [10]: 80.2% | viability, T/C [11]: 80.9% | viability, T/C [12]: 83.9% | viability, T/C [13]: 71.8% | viability, T/C [14]: 53.3% | viability, T/C [15]: 74.8% | viability, T/C [16]: 67% | viability, T/C [17]: 69.7% | viability, T/C [18]: 67.1% | viability, T/C [19]: 63.4% | viability, T/C [20]: 48.1% | viability, T/C [1]: 69.1% | viability, T/C [2]: 67% | viability, T/C [21]: 71.1% | viability, T/C [22]: 70% | viability, T/C [23]: 52.2% | viability, T/C [24]: 43.9% | viability, T/C [3]: 69.2% | viability, T/C [4]: 68.5% | viability, T/C [25]: 64% | viability, T/C [26]: 70.3% | viability, T/C [27]: 58% | viability, T/C [28]: 47.6% | viability, T/C [5]: 67.5% | viability, T/C [6]: 67% | viability, T/C [29]: 69.8% | viability, T/C [30]: 64.7% | viability, T/C [31]: 57.7% | viability, T/C [32]: 49.2% | viability, T/C [7]: 66.7% | viability, T/C [8]: 63.3% | viability, T/C [33]: 64.1% | viability, T/C [34]: 63.6% | viability, T/C [35]: 55.9% | viability, T/C [36]: 52.4%
